{"source": "patent US5856356A", "about": "“Use of strontium salts and pharmaceutical compositions thereof for the treatment of arthrosis” (Adir et Compagnie, priority 1996, dated 1999)", "system": "human chondrocytes"}
{"smiles": "[Cl-].[Cl-].[Sr+2]", "note": "[SrCl2, strontium chloride]", "values": [{"measurement": "production of sulfated glycoseaminoglycans", "setting": "24 hours, concentration printed \"210^-3 M\", control 43 871 ± 1124, p < 0.05", "value": "52 839 c.p.m./10^6 cells"}, {"measurement": "effect on the synthesis of proteoglycans / stimulation of the chondroformation (in words)", "setting": "human chondrocytes, same effects as compound A", "value": "exhibits the same effects"}]}
